Data on 78 compounds can be found in US20170050939A1, “SMALL MOLECULE INHIBITORS OF G PROTEIN COUPLED RECEPTOR 6 KINASE POLYPEPTIDES” (Mayo Foundation for Medical Education and Research, priority 2014, published 2017).

As usually defined, the IC50 is the concentration needed to halve the response being measured.

Molecules are shown by their SMILES.

T1 sequence (P43250 whole entry): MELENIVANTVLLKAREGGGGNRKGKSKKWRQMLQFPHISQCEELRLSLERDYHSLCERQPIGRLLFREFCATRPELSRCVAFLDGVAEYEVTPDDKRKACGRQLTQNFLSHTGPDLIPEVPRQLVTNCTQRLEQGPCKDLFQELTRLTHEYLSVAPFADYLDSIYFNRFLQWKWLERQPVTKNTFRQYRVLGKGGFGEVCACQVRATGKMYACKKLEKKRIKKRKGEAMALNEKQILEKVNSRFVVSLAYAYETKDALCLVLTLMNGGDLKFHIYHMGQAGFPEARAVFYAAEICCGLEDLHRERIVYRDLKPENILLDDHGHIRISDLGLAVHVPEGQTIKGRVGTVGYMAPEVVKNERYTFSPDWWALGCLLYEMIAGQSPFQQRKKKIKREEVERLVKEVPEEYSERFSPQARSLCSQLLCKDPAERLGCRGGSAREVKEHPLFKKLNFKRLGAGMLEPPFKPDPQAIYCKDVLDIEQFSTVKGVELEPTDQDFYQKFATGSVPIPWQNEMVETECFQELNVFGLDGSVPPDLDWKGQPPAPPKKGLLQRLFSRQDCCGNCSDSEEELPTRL

The first assay concerns the target T1, GRK6, recombinant full-length GST-tagged human protein (Homo sapiens, UniProt P43250).
T1 construct: GRK6, recombinant full-length GST-tagged human protein; GST
The assay can be described thus: GRK6 IC50 determination (8-point concentration-response).
Details: not given
The assay is classed as biochemical. An excerpt:
Two hundred forty compounds were further characterized by determining IC50 values in a GRK6 assay. This screen has been previously described in WO 2013/063458, which is incorporated by reference in its entirety herein.
With `O=C(O)CSc1nnc(-c2cc(NC(=O)c3ccoc3)cc(-c3ccc4ccccc4c3)c2)[nH]1` [Compound 67], the IC50 was found to be 1.31 µM.

For `COc1ncccc1-c1cc(-c2ccc3ccccc3c2)cc(-c2nnc(SCC(=O)O)[nH]2)c1` [Compound 68], the IC50 is 1.58 µM.

As for `O=C(O)CSc1nnc(-c2cc(-c3ccncc3)cc(-c3ccc4ccccc4c3)c2)[nH]1` [Compound 69], the IC50 stood at 1.86 µM.

Turning to `O=C(O)CSc1nnc(-c2cc(-c3ccc(C(F)(F)F)nc3)cc(-c3ccc4ccccc4c3)c2)[nH]1` [Compound 70], the IC50 came out at 2.73 µM.

For `O=C(O)CSc1nnc(-c2cc(-c3cnn(-c4cccc(Cl)c4)c3)cc([N+](=O)[O-])c2)[nH]1` [Compound 71], the IC50 turned out to be 0.131 µM.

Turning to `O=C(O)CSc1nnc(-c2cc(-c3cnn(Cc4ccccc4)c3)cc([N+](=O)[O-])c2)[nH]1` [Compound 72], the IC50 was 0.141 µM.

`CCn1cc(-c2cc(-c3nnc(SCC(=O)O)[nH]3)cc([N+](=O)[O-])c2)cn1` [Compound 73]: the IC50 is 0.342 µM.

Take `O=C(O)CSc1nnc(-c2cc(-c3cn[nH]c3)cc([N+](=O)[O-])c2)[nH]1` [Compound 74]: the IC50 is 0.379 µM.

As for `Cn1ccc(-c2cc(-c3nnc(SCC(=O)O)[nH]3)cc([N+](=O)[O-])c2)n1` [Compound 75], the IC50 was determined as 0.431 µM.

On to `COc1ccc2cc(-c3nnc(SCC(=O)O)[nH]3)ccc2c1` [Compound 76], for which the IC50 worked out at 0.653 µM.

For the compound `O=C(O)CSc1nnc(-c2cc(OCc3ccccc3)cc([N+](=O)[O-])c2)[nH]1` [Compound 77], the IC50 was found to be 0.695 µM.

As for `O=C(O)CSc1nnc(-c2cc(-c3cc[nH]n3)cc([N+](=O)[O-])c2)[nH]1` [Compound 78], the IC50 was determined as 0.742 µM.

Consider `Cc1nn(C)cc1-c1cc(-c2nnc(SCC(=O)O)[nH]2)cc([N+](=O)[O-])c1` [Compound 79], for which the IC50 was determined as 0.75 µM.

`O=C(O)CSc1nnc(-c2cc(C(=O)Nc3ccccc3)cc([N+](=O)[O-])c2)[nH]1` [Compound 82]: the IC50 was 0.761 µM.

`Cc1c(-c2cc(-c3nnc(SCC(=O)O)[nH]3)cc([N+](=O)[O-])c2)cnn1C` [Compound 83]: the IC50 stood at 0.797 µM.

As to `Cc1onc(-c2ccccc2)c1-c1cc(-c2nnc(SCC(=O)O)[nH]2)cc([N+](=O)[O-])c1` [Compound 84], the IC50 worked out at 0.879 µM.

Turning to `O=C(O)CSc1nnc(-c2ccc3ccccc3c2)[nH]1` [Compound 85], the IC50 came out at 0.886 µM.

For the compound `O=C(O)CSc1nnc(-c2ccc(OCc3ccccc3)c([N+](=O)[O-])c2)[nH]1` [Compound 86], the IC50 was found to be 0.935 µM.

As for `Cn1nccc1-c1cc(-c2nnc(SCC(=O)O)[nH]2)cc([N+](=O)[O-])c1` [Compound 88], the IC50 came out at 1.05 µM.

Take `O=C(O)CSc1nnc(-c2cc(Br)cc([N+](=O)[O-])c2)[nH]1` [Compound 90]: the IC50 is 1.35 µM.

On to `Cc1noc(C)c1-c1cc(-c2nnc(SCC(=O)O)[nH]2)cc([N+](=O)[O-])c1` [Compound 91], for which the IC50 is 1.38 µM.

`Cc1nn(C)c(C)c1-c1cc(-c2nnc(SCC(=O)O)[nH]2)cc([N+](=O)[O-])c1` [Compound 93]: the IC50 came to 1.57 µM.

As for `O=C(O)CSc1nnc(-c2cc(C(=O)NCc3ccccc3)cc([N+](=O)[O-])c2)[nH]1` [Compound 94], the IC50 is 1.57 µM.

As for `O=C(O)CSc1nnc(-c2cc(-c3cnn(CC(=O)O)c3)cc([N+](=O)[O-])c2)[nH]1` [Compound 95], the IC50 worked out at 2.02 µM.

`Cn1nc(C(F)(F)F)cc1-c1cc(-c2nnc(SCC(=O)O)[nH]2)cc([N+](=O)[O-])c1` [Compound 97]: the half-maximal inhibitory concentration (IC50) is 2.49 µM.

With `CC(C)CNC(=O)c1cc(-c2nnc(SCC(=O)O)[nH]2)cc([N+](=O)[O-])c1` [Compound 100], the IC50 worked out at 2.75 µM.

Turning to `O=C(O)CSc1nnc(-c2ccc3occc3c2)[nH]1` [Compound 102], the IC50 amounted to 3.08 µM.

As for `COc1cc(-c2nnc(SCC(=O)O)[nH]2)cc(C)c1O` [Compound 103], the IC50 worked out at 3.3 µM.

In the case of `CC(C)Oc1ccc(-c2nnc(SCC(=O)O)[nH]2)cc1[N+](=O)[O-]` [Compound 104], the IC50 came out at 3.3 µM.

`O=C(O)CSc1nnc(-c2cccc(C(=O)Nc3ccc4c(c3)NC(=O)C4)c2)[nH]1` [Compound 105]: the IC50 came out at 3.33 µM.

For the compound `O=C(O)CSc1nnc(-c2ccc3ncccc3c2)[nH]1` [Compound 107], the IC50 worked out at 3.39 µM.

As for `COc1cc(-c2nnc(SCC(=O)O)[nH]2)cc2c1OCO2` [Compound 108], the IC50 was 3.47 µM.

On to `O=C(O)CSc1nnc(-c2cc(C(=O)NCc3ccccn3)cc([N+](=O)[O-])c2)[nH]1` [Compound 111], for which the IC50 came to 4.41 µM.

As for `COc1cc(-c2nnc(SCC(=O)O)[nH]2)ccc1F` [Compound 114], the IC50 came to 4.62 µM.

With `O=C(O)CSc1nnc(-c2cc(C(=O)NCc3cccnc3)cc([N+](=O)[O-])c2)[nH]1` [Compound 116], the IC50 was 4.78 µM.

For `O=C(O)CSc1nnc(-c2ccc3nsnc3c2)[nH]1` [Compound 117], the IC50 was found to be 4.85 µM.

`O=C(O)CSc1nnc(-c2cc(Br)cc([N+](=O)[O-])c2)n1CC(=O)O` [Compound 120]: the IC50 turned out to be 5.06 µM.

As for `O=C(O)CSc1nnc(-c2ccc3[nH]cnc3c2)[nH]1` [Compound 125], the IC50 is 6.45 µM.

As to `O=C(O)CSc1nnc(-c2cccc(C(=O)Nc3ccc4cn[nH]c4c3)c2)[nH]1` [Compound 130], the IC50 came out at 6.93 µM.

In the case of `O=C(O)CSc1nnc(-c2cccc(C(=O)Nc3cccc(Cl)c3)c2)[nH]1` [Compound 135], the IC50 is 7.92 µM.

For `O=C(O)CSc1nnc(-c2ccc3c(c2)OC(F)(F)O3)[nH]1` [Compound 136], the IC50 was found to be 7.93 µM.

On to `O=C(O)CSc1nnc(-c2cccc(C(=O)Nc3cccc4[nH]ccc34)c2)[nH]1` [Compound 143], for which the IC50 stood at 9.82 µM.

For `O=C(O)CSc1nnc(-c2cccc(C(=O)Nc3cccc4[nH]ncc34)c2)[nH]1` [Compound 146], the IC50 came out at 11.4 µM.

The same assay, now with this note: 20 nM GRK6, 12 μM ATP (Km), 1 μM Peptide 216, 7 h incubation.
With `O=C(O)CSc1nnc(-c2cccc(-c3cccs3)c2)[nH]1` [Compound 81], the IC50 was 0.757 µM.

Turning to `O=C(O)CSc1nnc(-c2cc(Br)ccc2O)[nH]1` [Compound 89], the IC50 amounted to 1.05 µM.

For `O=C(O)CSc1nnc(-c2cccc([N+](=O)[O-])c2)[nH]1` [Compound 92], the IC50 came to 1.4 µM.

`N#Cc1cccc(-c2nnc(SCC(=O)O)[nH]2)c1` [Compound 96]: the IC50 is 2.31 µM.

For `COc1cc(F)cc(-c2nnc(SCC(=O)O)[nH]2)c1` [Compound 98], the IC50 worked out at 2.61 µM.

On to `Cc1ccc(O)c(-c2nnc(SCC(=O)O)[nH]2)c1` [Compound 99], for which the IC50 is 2.71 µM.

In the case of `O=C(O)CSc1nnc(-c2cccc(C(F)(F)F)c2)[nH]1` [Compound 101], the IC50 stood at 3.02 µM.

For `O=C(O)CSc1nnc(-c2ccc(F)c(F)c2)[nH]1` [Compound 106], the IC50 was 3.36 µM.

Take `CC(=O)c1cccc(-c2nnc(SCC(=O)O)[nH]2)c1` [Compound 110]: the IC50 is 4.11 µM.

With `O=C(O)CSc1nnc(-c2cccc(-n3cncn3)c2)[nH]1` [Compound 112], the IC50 was determined as 4.47 µM.

On to `COc1ccc(O)c(-c2nnc(SCC(=O)O)[nH]2)c1` [Compound 113], for which the IC50 amounted to 4.55 µM.

Take `O=C(O)CSc1nnc(-c2cccc(F)c2)[nH]1` [Compound 115]: the IC50 was 4.7 µM.

Turning to `COc1ccc(-c2nnc(SCC(=O)O)[nH]2)cc1C` [Compound 118], the IC50 stood at 4.99 µM.

For `O=C(O)CSc1nnc(-c2ccc(O)c(O)c2)[nH]1` [Compound 119], the IC50 stood at 5.02 µM.

Turning to `COc1cccc(-c2nnc(SCC(=O)O)[nH]2)c1` [Compound 121], the IC50 turned out to be 5.85 µM.

With `COc1cc(OC)cc(-c2nnc(SCC(=O)O)[nH]2)c1` [Compound 122], the IC50 stood at 6.1 µM.

As to `O=C(O)CSc1nnc(-c2cc(O)ccc2O)[nH]1` [Compound 123], the IC50 was determined as 6.16 µM.

On to `CS(=O)(=O)c1cccc(-c2nnc(SCC(=O)O)[nH]2)c1` [Compound 124], for which the IC50 was 6.36 µM.

For `O=C(O)CSc1nnc(-c2cccc(-c3cnccn3)c2)[nH]1` [Compound 126], the IC50 is 6.5 µM.

Turning to `O=C(O)CSc1nnc(-c2cc(O)cc(O)c2)[nH]1` [Compound 127], the IC50 is 6.54 µM.

In the case of `O=C(O)CSc1nnc(-c2ccc(O)c([N+](=O)[O-])c2)[nH]1` [Compound 128], the IC50 is 6.8 µM.

For the compound `Cc1ccc(-c2nnc(SCC(=O)O)[nH]2)c(O)c1` [Compound 129], the IC50 was 6.88 µM.

Consider `O=C(O)CSc1nnc(-c2ccc(O)c(F)c2)[nH]1` [Compound 131], for which the IC50 is 7.3 µM.

As to `O=C(O)CSc1nnc(-c2ccc(-n3ccnc3)cc2)[nH]1` [Compound 132], the IC50 amounted to 7.36 µM.

Turning to `O=C(O)CSc1nnc(-c2ccc(-c3ccccc3)cc2)[nH]1` [Compound 133], the IC50 was determined as 7.37 µM.

Turning to `O=C(O)CSc1nnc(-c2ccc(-c3cncnc3)cc2)[nH]1` [Compound 134], the half-inhibitory concentration (IC50) stood at 7.45 µM.

Consider `COc1cc(-c2nnc(SCC(=O)O)[nH]2)cc(OC)c1OC` [Compound 137], for which the IC50 turned out to be 8.23 µM.

Consider `O=C(O)CSc1nnc(-c2cccc(F)c2O)[nH]1` [Compound 138], for which the IC50 was determined as 8.75 µM.

As to `COc1cc(-c2nnc(SCC(=O)O)[nH]2)ccc1OC(=O)C1CC1` [Compound 139], the IC50 turned out to be 8.83 µM.

With `COc1cc(-c2nnc(SCC(=O)O)[nH]2)cc(OC)c1O` [Compound 140], the IC50 is 8.83 µM.

On to `CCSc1ccc(-c2nnc(SCC(=O)O)[nH]2)cc1` [Compound 141], for which the IC50 turned out to be 8.84 µM.

Turning to `COC(=O)c1ccc(-c2nnc(SCC(=O)O)[nH]2)cc1` [Compound 142], the IC50 amounted to 9.56 µM.

For the compound `COc1cc(-c2nnc(SCC(=O)O)[nH]2)ccc1OC(C)=O` [Compound 144], the IC50 worked out at 9.9 µM.

Turning to `O=C(O)CSc1nnc(-c2cccc(F)c2F)[nH]1` [Compound 145], the IC50 amounted to 10.7 µM.

Regarding `O=C(O)CSc1nnc(-c2ccc(O)cc2O)[nH]1` [Compound 147], the IC50 was found to be 11.6 µM.
